Where a name gives a salt, the structure may show the parent alone. Read-outs that look alike come from different tables or passages of the source.
Experiments:
HepG2 = test: EC50 determination in cancer cell lines; format: cell-based, human
Description: (§1) Compounds were added at different concentrations to each well, and cell cultures were incubated for 72 h. Vehicle (DMSO or H2O) was used as a control, and all compounds were tested in a constant percentage of vehicle. Cell outgrowth was measured using for adherent cells CellTiter […] Aqueous One Solution Cell Proliferation Assay (Promega) and for cell suspension, Sulforhodamine B colorimetric assay as described in Vichai et al. (Vichai, V. and Kirtikara, K. Nat. Protoc. 2006 (1) 1112-1116). Absorbance was measured using an Infinite F200 Pro or Sunrise TECAN plate reader.
(§2) The human melanoma cell line A375, colorectal carcinoma cell line HCT-116, hepatocellular carcinoma cell line HepG2 were cultured in Dulbecco's modified Eagle's medium supplemented with 10% fetal bovine serum and 1% Penicillin-Streptomycin. The human melanoma cell lines SK-MEL-28 and SK-MEL-5 were cultured in Minimum Essential Medium. The colorectal carcinoma cell lines HT-29 and Colo205 were respectively cultured in Mc Coy's and RPMI media. The human leukemia cell lines MV4-11 and KG-1 were cultured in Iscove's Modified Dulbecco's Media. The human leukemia cell line MOLM-14 was cultured in Minimum Essential Medium Alpha Medium supplemented with 10% Fetal Bovine Serum and 1% Penicillin-Streptomycin All culture media were supplemented with 10% fetal bovine serum and 1% Penicillin-Streptomycin except for MV4-11 cell line 20% fetal bovine serum and 1% Penicillin-Streptomycin. All the cell lines were maintained at 37° C. with 5% C02.
(§3) Briefly, adherent cells, A375, HCT-116, HepG2, SK-MEL-28, SK-MEL-5, HT-29 and Colo205 cells were respectively plated at 800, 5,000, 7,000, 2,500, 3,000-5,000, 5,000 or 5,000 cells per well onto 96-well plates in 90 μL of media per well and were allowed to grow overnight before the assay. For MV4-11 and KG-1 cells that grow in suspension, 40,000-60,000 cells were plated onto 96-well plates immediately before the assay. MOLM-14 cell line, that grow in suspension, 30,000 cells were plated onto 96-well plates immediately before the assay.
(§4) The cell growth measure was the same as described in example 51.
(§5) The experimental data are analyzed using a computer program, Graphpad Prism (GraphPad Software, Inc. La Jolla, Calif.) and EC50 values were determined as the dose of compound required to reduce absorbance values to 50% of the signal obtained for vehicle treated cell cultures and were a mean of at least two independent experiments except for EC50 values with (*) where […].

A-375 = test: EC50 determination in cancer cell lines; format: cell-based, human
Description: as §1, §2, §3, §4, §5

HCT-116 [1] = test: EC50 determination in cancer cell lines; format: cell-based, human
Description: as §1, §2
Briefly, adherent cells, A375, HCT-116, HepG2, SK-MEL-28, SK-MEL-5, HT-29 and Colo205 cells were respectively plated at 800, 5,000, 7,000, 2,500, 3,000-5,000, 5,000 or 5,000 cells per well onto 96-well plates in 90 μL of media per well and were allowed to grow overnight before the assay. For MV4-11 and KG-1 cells that grow in suspension, 40,000-60,000 cells were plated onto 96-well plates immediately before the assay. MOLM-14 cell line, that grow in suspension, 30,000 cells were plated onto 96-well plates immediately before the assay. […]
as §5

MOLM-14 [2] = test: EC50 determination in cancer cell lines; format: cell-based; conditions: Homo sapiens, 72 h
Description: as §1, §2, §3, §4, §5

HCT-116 [3] = test: Cell proliferation assay at 10 μM; format: cell-based; conditions: Homo sapiens, HCT-116, 72 h, read-out: Cell viability observed at 10 μM
Description: (§6) The human melanoma cell line A375 and colorectal carcinoma cell line HCT-116 were cultured in Dulbecco's modified Eagle's medium supplemented with 10% fetal bovine serum and 1% Penicillin-Streptomycin. The human leukemia cell line MOLM-14 was cultured in Minimum Essential Medium Alpha Medium supplemented with 10% Fetal Bovine Serum and 1% Penicillin-Streptomycin. All the cell lines were maintained at 37° C. with 5% CO2.
(§7) Briefly, adherent cells, A375 and HCT-116 cells were respectively plated at 800 or 5,000 cells per well onto 96-well plates in 90 μL of media per well and were allowed to grow overnight before the assay.
as §1
(§8) In each experiment, each point represents the average of two replicates in cell culture.
(§9) Results are presented in Table 1 below for concentrations of 10 μM of tested compounds.

A375 = test: Cell proliferation assay at 10 μM; format: cell-based, human; conditions: Homo sapiens, read-out: Cell viability observed at 10 μM
Description: as §6, §7, §1, §8, §9

MOLM-14 [4] = test: Cell proliferation assay at 10 μM; format: cell-based, human; conditions: Homo sapiens, read-out: Cell viability observed at 10 μM
Description: as §6
For MOLM-14 cell line, which grows in suspension, 30,000 cells were plated onto 96-well plates immediately before the assay.
as §1, §8, §9

[5] = HCT-116, 10 μM, 72 h, % of cell viability remaining
[6] = A-375, A375, 10 μM, 72 h, % of cell viability remaining
[7] = MOLM-14, 10 μM, 72 h, % of cell viability remaining

SMILES | EC50 (HepG2; Homo sapiens, HepG2, 72 h) | EC50 (A-375; Homo sapiens, A-375, 72 h) | EC50 (HCT-116 [1]; Homo sapiens, HCT-116, 72 h) | EC50 (MOLM-14 [2]) | viability at 10 µM (HCT-116 [3]) | viability at 10 µM (A375; A-375, 72 h) | viability at 10 µM (MOLM-14 [4]; MOLM-14, 72 h) | also measured
CN(C)CCCNc1cc(-c2ccccc2)nc2ccccc12 [XLI-1, N^1,N^1-dimethyl-N^3-(2-phenylquinoline-4-yl)propane-1,3-diamine] | – | – | – | – | – | – | – | EC50 (HepG2; 72 h): 10 µM; EC50 (A-375; 72 h): 2 µM; EC50 (HCT-116 [1]; 72 h): 4 µM
CCN(CC)C1CCN(c2cc(-c3ccc4ccccc4c3)nc3ccccc23)CC1 [VI-5, 2-(2-naphtyl)-4-(4-N,N-diethylamino-piperidin-1-yl)quinoline] | 11 µM | 4 µM | 6 µM | 5 µM | – | – | – | –
CCN(CC)C1CCN(Cc2cc(-c3ccccc3)nc3cc(Cl)ccc23)CC1 [XVII-6, 7-Chloro-2-phenyl-4-[4-(N,N-diethylamino)-piperidin-1-ylmethyl]quinoline dihydrochloride] | 8 µM | 3 µM | 4 µM | 5 µM | < 20% | < 20% | < 20% | –
CN(C)CCCNc1cc(-c2ccc3ccccc3c2)nc2ccccc12 [XLII-2, N^1,N^1-dimethyl-N^3-[2-(naphtalen-2-yl)quinoline-4-yl]propane-1,3-diamine hydrochloride salt] | 19 µM | 3 µM | 11 µM | 4 µM | < 20% | < 20% | < 20% | –
CCN(CC)C1CCN(C(C)c2cc(-c3ccccc3)nc3cc(Cl)ccc23)CC1 (stereo not shown) [XVI-4, 7-Chloro-2-phenyl-4-{1-[4-(N,N-diethylamino)-piperidin-1-yl]-eth-1-yl}quinoline dihydrochloride] | 13 µM | 4 µM | 6 µM | 6 µM | < 20% | < 20% | < 20% | –
CN(C)CCCNc1cc(-c2ccccc2)nc2ccccc12 [XL-2, N^1,N^1-dimethyl-N^3-(2-phenylquinoline-4-yl)propane-1,3-diamine trifluoroacetate salt] | 17 µM | 3 µM | 5 µM | 3 µM | – | – | – | viability at 10 µM (HCT-116 [3]; [5]): 20 to 40%; viability at 10 µM (A375; [6]): < 20%; viability at 10 µM (MOLM-14 [4]; [7]): < 20%
CC(c1cc(-c2ccccc2)nc2ccccc12)N1CCC(NC(C)(C)C)CC1 (stereo not shown) [XXIII-2, 2-phenyl-4-{1-[4-N-tert-butylamino-piperidinyl]-eth-1-yl}quinoline dihydrochloride] | – | – | – | 6 µM | 20 to 40% | < 20% | < 20% | EC50 (HepG2; Homo sapiens, 72 h): 18 µM; EC50 (A-375; Homo sapiens, 72 h): 8 µM; EC50 (HCT-116 [1]; Homo sapiens, 72 h): 11 µM
CN(C)CCCNCc1cc(-c2ccccc2)nc2cc(Cl)ccc12 [XLIV-1, N^1,N^1-dimethyl-N^3-(7-chloro-2-phenylquinoline-4-ylmethyl)-propane-1,3-diamine] | 10 µM | 4 µM | 6 µM | 6 µM | – | – | – | –
CCN(CC)C1CCN(c2cc(-c3ccc(-c4ccccc4)cc3)nc3ccccc23)CC1 [IX-2, 2-(1,1′-biphenyl)-4-yl-4-(4-N,N-diethylamino-piperidin-1-yl)quinoline dihydrochloride] | 13 µM | 3 µM | 4 µM | 4 µM | < 20% | < 20% | < 20% | –
CCN(CC)C1CCN(c2cc(-c3ccccc3)nc3cc(Cl)ccc23)CC1 [II-3, 7-chloro-2-phenyl-4-(4-N,N-diethylamino-piperidin-1-yl)quinoline] | 8 µM | 3 µM | 4 µM | 5 µM | – | – | – | –
COc1ccc(-c2cc(N3CCC(NC(C)(C)C)CC3)c3ccccc3n2)cc1 [XV-8, 2-(4-methoxy-phenyl)-4-(4-N-tert-butylamino-piperidin-1-yl)quinoline dihydrochloride] | 27 µM | 10 µM | 17 µM | 3 µM | > 80% | 20 to 40% | < 20% | –
CCN(CC)C1CCN(c2cc(-c3ccc4ccccc4c3)nc3ccccc23)CC1 [VI-6, 2-(2-naphtyl)-4-(4-N,N-diethylamino-piperidin-1-yl)quinoline dihydrochloride] | – | – | – | – | < 20% | < 20% | < 20% | –
CCN(CC)C1CCN(c2cc(-c3ccccc3)nc3cc(Cl)ccc23)CC1 [II-4, 7-chloro-2-phenyl-4-(4-N,N-diethylamino-piperidin-1-yl)quinoline dihydrochloride] | – | – | – | – | 20 to 40% | < 20% | 60 to 80% | –
c1ccc(-c2cc(N3CCC(N4CCCCC4)CC3)c3ccccc3n2)cc1 [III-4, 2-phenyl-4-([1,4′]-bipiperidin-1′-yl)quinoline dihydrochloride] | – | – | – | – | > 80% | > 80% | 60 to 80% | –
CCN(CC)C1CCN(Cc2cc(-c3ccccc3)nc3ccccc23)CC1 [XX-5, 2-phenyl-4-[4-(N,N-diethylamino)-piperidin-1-ylmethyl]quinoline dihydrochloride] | – | – | – | – | > 80% | 60 to 80% | 40 to 60% | –
CN(c1cc(-c2ccccc2)nc2cc(Cl)ccc12)C1CCN(Cc2ccccc2)CC1 [XXIX-2, 7-chloro-2-phenyl-4-[N-methyl-N—(N-benzylpiperidin-4-yl)-amino]quinoline hydrochloride salt] | – | – | – | – | – | – | – | viability at 10 µM (HCT-116 [3]; [5]): > 80%; viability at 10 µM (A375; [6]): > 80%; viability at 10 µM (MOLM-14 [4]; [7]): > 80%

From patent publication US10179770B2, “Quinolines derivatives as novel anticancer agents” (GENOSCIENCE PHARMA, priority 2013, dated 2019)
